ChEMBL document CHEMBL4033623, “Synthesis of xanthone derivatives and studies on the inhibition against cancer cells growth and synergistic combinations of them” (Eur J Med Chem, 2017)
Active and inactive are the calls of the source. The calls are words filed in the database; no cut-off is given here.

Columns and labels:
MDA-MB-231 [1] = assay: Synergistic induction of apoptosis in human MDA-MB-231 cells assessed as necrotic cells at 0.4 uM after 48 hrs in presence of DMXAA by Annexin-V/FITC/PI staining based flow cytometry (reference value: 0.00 %); type: functional
MDA-MB-231 [2] = assay: Induction of apoptosis in human MDA-MB-231 cells assessed as increase in cleaved PARP expression at 0.2 to 0.8 uM after 48 hrs by Western blot analysis; type: functional, cell-based
MDA-MB-231 [3] = assay: Synergistic induction of apoptosis in human MDA-MB-231 cells assessed as viable cells at 0.8 uM after 48 hrs in presence of DMXAA by Annexin-V/FITC/PI staining based flow cytometry (reference value: 99.95 %); type: functional; settings: MDA-MB-231, 48 h, read-out: Activity
MDA-MB-231 [4] = assay: Induction of apoptosis in human MDA-MB-231 cells assessed as necrotic cells at 0.8 uM after 48 hrs by Annexin-V/FITC/PI staining based flow cytometry (reference value: 1.55 %); type: functional
MDA-MB-231 [5] = assay: Synergistic induction of apoptosis in human MDA-MB-231 cells assessed as viable cells at 0.2 uM after 48 hrs in presence of DMXAA by Annexin-V/FITC/PI staining based flow cytometry (reference value: 99.95 %); type: functional; settings: MDA-MB-231, 48 h, read-out: Activity
MDA-MB-231 [6] = assay: Induction of apoptosis in human MDA-MB-231 cells assessed as early apoptotic cells at 0.2 uM after 48 hrs by Annexin-V/FITC/PI staining based flow cytometry (reference value: 0.44 %); type: functional
MDA-MB-231 [7] = assay: Synergistic induction of apoptosis in human MDA-MB-231 cells assessed as viable cells at 0.4 uM after 48 hrs in presence of DMXAA by Annexin-V/FITC/PI staining based flow cytometry (reference value: 99.95 %); type: functional; settings: MDA-MB-231, 48 h, read-out: Activity
COLO 320 = assay: Antiproliferative activity against human COLO320 cells after 48 hrs by CCK8 assay; type: functional, cell-based; settings: COLO 320, 48 h
MDA-MB-231 [8] = assay: Synergistic induction of apoptosis in human MDA-MB-231 cells assessed as increase in cleaved PARP level at 0.1 to 0.5 uM after 48 hrs in presence of DMXAA by Western blot analysis; type: functional, cell-based
MDA-MB-231 [9] = assay: Induction of apoptosis in human MDA-MB-231 cells assessed as increase in cleaved caspase-3 expression at 0.2 to 0.8 uM after 48 hrs by Western blot analysis; type: functional, cell-based
MDA-MB-231 [10] = assay: Increase in p53 level in human MDA-MB-231 cells at 0.2 to 0.8 uM after 48 hrs by Western blot analysis; type: functional, cell-based
MDA-MB-231 [11] = assay: Decrease in caspase-3 level in human MDA-MB-231 cells at 0.2 to 0.8 uM after 48 hrs by Western blot analysis; type: functional, cell-based
MDA-MB-231 [12] = assay: Induction of apoptosis in human MDA-MB-231 cells assessed as late apoptotic cells at 0.8 uM after 48 hrs by Annexin-V/FITC/PI staining based flow cytometry (reference value: 1.50 %); type: functional
MDA-MB-231 [13] = assay: Synergistic induction of apoptosis in human MDA-MB-231 cells assessed as late apoptotic cells at 0.8 uM after 48 hrs in presence of DMXAA by Annexin-V/FITC/PI staining based flow cytometry (reference value: 0.00 %); type: functional
MDA-MB-231 [14] = assay: Synergistic induction of apoptosis in human MDA-MB-231 cells assessed as necrotic cells at 0.8 uM after 48 hrs in presence of DMXAA by Annexin-V/FITC/PI staining based flow cytometry (reference value: 0.00 %); type: functional
MDA-MB-231 [15] = assay: Induction of apoptosis in human MDA-MB-231 cells assessed as necrotic cells at 0.2 uM after 48 hrs by Annexin-V/FITC/PI staining based flow cytometry (reference value: 1.55 %); type: functional
MDA-MB-231 [16] = assay: Synergistic cell cycle arrest in human MDA-MB-231 cells assessed as accumulation at G2/M phase at 0.2 to 0.8 uM after 48 hrs in presence of DMXAA by propidium iodide staining based flow cytometric method; type: functional
K562 = assay: Synergistic antiproliferative activity against human K562 cells at compound to DMXAA mol ratio of 1:1 after 48 hrs by CCK8 assay; type: functional, cell-based; settings: K562, 48 h
MCF7 = assay: Synergistic antiproliferative activity against human MCF7 cells at compound to DMXAA mol ratio of 1:1 after 48 hrs by CCK8 assay; type: functional, cell-based; settings: MCF7, 48 h

For `O=c1c2cc(Br)ccc2oc2cc(O)cc(O)c12`, the Activity (MDA-MB-231 [1]) was 22.27%, the Activity (MDA-MB-231 [2]) was “Active” and the viability at 0.8 µM (MDA-MB-231 [3]) was 41.1%. For the same molecule, the Activity (MDA-MB-231 [4]) was 45.02%, the viability at 0.2 µM (MDA-MB-231 [5]) was 48.6% and the Activity (MDA-MB-231 [6]) was 0.98%. The viability at 0.4 µM (MDA-MB-231 [7]) was 46.3%, the IC50 (COLO 320) was 10.5 µM and the Activity (MDA-MB-231 [8]) was “Active”. For the same molecule, the Activity (MDA-MB-231 [9]) was “Active”, the Activity (MDA-MB-231 [10]) was “Active” and the Activity (MDA-MB-231 [11]) was “Active”. For the same molecule, the Activity (MDA-MB-231 [12]) was 13.71%, the Activity (MDA-MB-231 [13]) was 34.65% and the Activity (MDA-MB-231 [14]) was 17.47%. The Activity (MDA-MB-231 [15]) was 14.44%, the Activity (MDA-MB-231 [16]) was “inactive” and the IC50 (K562) was 10.2 µM. It also gave an IC50 (MCF7) of 2410 nM.
